Activity calls are given as the source filed them.
Assays:
[1] = Trypanosoma cruzi growth suppression in host cells – NIH3T3 host cells, beta-gal luminescence, confirmation (AID 2044); format: functional, cell-based;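 further: intracellular parasites grown in NIH/3T3 mouse fibroblasts as host cells; luminescent beta-galactosidase reporter signal from transgenic T. cruzi replicating inside host cells; inhibitors lower the luminescence signal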
[2] = NIH3T3 cell viability loss – ATP luminescence, mouse fibroblasts, counter-screen, dose response (AID 2010); format: functional, cell-based;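 further: cells exposed to compound for about 90 hours before reading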
[3] = HEK-293T viability loss after treatment – luminescence, T-cell screen hits, cytotoxicity control for TCR NF-kB inhibitor project, dose response (AID 489026); format: functional, cell-based;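 further: cells exposed to compound about 14 hours before the viability readout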
[4] = molecular target: T1, Microphthalmia-associated transcription factor (Homo sapiens, UniProt O75030); test: reducers of TRPM1 reporter luminescence, concentration series – cell-based, SK-MEL-5, cherry-picked, set 3, MITF inhibitor project, dose response (AID 493073); format: functional;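 further: SK-MEL-5 melanoma cells with luciferase driven by the MITF target TRPM1 promoter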
T1 sequence (O75030 whole entry): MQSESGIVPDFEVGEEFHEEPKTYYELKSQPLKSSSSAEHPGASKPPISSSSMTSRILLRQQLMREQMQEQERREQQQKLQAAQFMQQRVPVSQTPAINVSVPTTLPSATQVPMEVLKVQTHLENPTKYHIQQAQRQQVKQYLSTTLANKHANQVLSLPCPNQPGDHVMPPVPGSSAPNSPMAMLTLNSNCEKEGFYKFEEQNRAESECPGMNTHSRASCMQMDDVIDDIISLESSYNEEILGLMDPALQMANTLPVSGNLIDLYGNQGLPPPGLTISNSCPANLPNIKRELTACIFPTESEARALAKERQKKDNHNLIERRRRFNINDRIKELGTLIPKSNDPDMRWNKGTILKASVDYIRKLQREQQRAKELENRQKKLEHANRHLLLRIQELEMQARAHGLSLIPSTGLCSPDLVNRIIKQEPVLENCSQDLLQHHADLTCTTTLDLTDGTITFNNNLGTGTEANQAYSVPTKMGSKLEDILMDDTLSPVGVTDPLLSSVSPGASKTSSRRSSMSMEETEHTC

[5] = tested on: A-375; test: proliferation inhibition in MITF-low A375 cells – cell-based, cherry-pick samples, set 2, counter-screen for MITF modulator project, dose response (AID 540335); format: functional; conditions: Homo sapiens
[6] = cells
[7] = viability loss in HeLa cells – cytotoxicity control for MgcRacGAP inhibitor project, dose response (AID 624300); format: functional
[8] = molecular target: T2, Rac GTPase-activating protein 1 (Homo sapiens, UniProt Q9H0H5); test: blockers of MgcRacGAP-driven Rac1 GTP hydrolysis – biochemical, ADP Hunter fluorescence, primary and confirmatory, confirmation (AID 624330); format: functional
T2 sequence (Q9H0H5 whole entry): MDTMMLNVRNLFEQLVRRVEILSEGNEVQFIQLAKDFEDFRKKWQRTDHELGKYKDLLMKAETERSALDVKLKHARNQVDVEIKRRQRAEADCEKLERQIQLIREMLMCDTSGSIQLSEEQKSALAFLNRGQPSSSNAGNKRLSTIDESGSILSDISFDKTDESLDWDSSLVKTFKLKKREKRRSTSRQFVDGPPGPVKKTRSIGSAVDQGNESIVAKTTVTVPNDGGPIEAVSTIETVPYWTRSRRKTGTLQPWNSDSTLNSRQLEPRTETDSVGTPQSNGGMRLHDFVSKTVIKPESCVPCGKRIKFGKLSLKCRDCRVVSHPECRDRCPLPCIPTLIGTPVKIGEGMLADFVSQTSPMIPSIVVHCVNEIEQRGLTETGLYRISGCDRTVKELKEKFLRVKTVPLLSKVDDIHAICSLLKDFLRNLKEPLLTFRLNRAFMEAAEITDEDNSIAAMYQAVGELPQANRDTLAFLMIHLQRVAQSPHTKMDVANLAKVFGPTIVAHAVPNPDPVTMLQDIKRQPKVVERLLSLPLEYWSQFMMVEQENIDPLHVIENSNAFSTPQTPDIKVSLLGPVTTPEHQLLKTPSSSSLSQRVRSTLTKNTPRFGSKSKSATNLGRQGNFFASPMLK

[9] = Luminescence Cell-Based Dose Confirmation HTS to Identify Activators of 5'UTR Stem-Loop Driven Alpha-Synuclein mRNA Translation in H4 Neuroglioblastoma Cells. [Related pubchem assays: 1829 (Project Summary), 1814 (Primary HTS)]; format: functional
[10] = Luminescence Cell-Based Dose Response HTS to Identify Activators of Luciferase Translation or Activity in H4 […] Cells. [Related pubchem assays: 1829 (Project Summary), 1814 (Primary HTS)]; format: functional
[11] = tested on: H4; test: Luminescence Cell-Based Dose Response HTS to Identify Activators of 5'UTR Stem-Loop Driven Prion Protein mRNA Translation in H4 Neuroglioblastoma Cells. [Related pubchem assays: 1829 (Project Summary), 1814 (Primary HTS)]; format: functional; conditions: Homo sapiens
[12] = molecular target: DNA damage-inducible transcript 3 protein (Mus musculus, UniProt P35639); format: functional, Cricetulus griseus
DNA damage-inducible transcript 3 protein, sequence (P35639 whole entry): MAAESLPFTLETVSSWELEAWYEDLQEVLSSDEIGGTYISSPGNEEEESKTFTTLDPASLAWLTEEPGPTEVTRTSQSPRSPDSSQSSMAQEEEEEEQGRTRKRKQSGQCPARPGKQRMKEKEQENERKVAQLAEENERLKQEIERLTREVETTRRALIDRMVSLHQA

[13] = molecular target: X-box-binding protein 1 (Homo sapiens, UniProt P17861); format: functional, Cricetulus griseus;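 further: confirmatory dose-response counter-screen serving a CHOP assay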
X-box-binding protein 1, sequence (P17861 whole entry): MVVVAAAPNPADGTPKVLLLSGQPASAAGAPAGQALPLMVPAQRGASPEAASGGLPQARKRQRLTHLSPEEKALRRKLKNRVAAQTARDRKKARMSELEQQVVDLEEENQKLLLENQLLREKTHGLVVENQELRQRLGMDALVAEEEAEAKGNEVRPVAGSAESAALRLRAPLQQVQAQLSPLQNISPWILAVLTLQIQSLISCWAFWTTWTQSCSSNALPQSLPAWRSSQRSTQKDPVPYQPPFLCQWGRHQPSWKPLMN

[14] = tested on: Vero; test: cells; format: functional; conditions: Chlorocebus sabaeus
[15] = molecular target: Dual specificity tyrosine-phosphorylation-regulated kinase 1A (Rattus norvegicus, UniProt Q63470); format: biochemical, Homo sapiens
[16] = tested on: HEK293; test: cells; conditions: Homo sapiens
[17] = tested on: HEK293; test: cells; conditions: Homo sapiens; remark: listed apart in the source
[18] = tested on: HeLa; test: ATP-based viability loss in HeLa cells – cell-based, CellTiter-Glo luminescence, cherry-pick samples, cytotoxicity control for MITF activator project, dose response (AID 540259); format: functional; conditions: Homo sapiens
[19] = molecular target: Dual specificity protein kinase CLK1 (Homo sapiens, UniProt P49759); test: inhibition of human CLK1 activity – biochemical, cherry-picked samples, selectivity assay for Dyrk1A inhibitor project, dose response (AID 588811)
Dual specificity protein kinase CLK1, sequence (P49759 whole entry): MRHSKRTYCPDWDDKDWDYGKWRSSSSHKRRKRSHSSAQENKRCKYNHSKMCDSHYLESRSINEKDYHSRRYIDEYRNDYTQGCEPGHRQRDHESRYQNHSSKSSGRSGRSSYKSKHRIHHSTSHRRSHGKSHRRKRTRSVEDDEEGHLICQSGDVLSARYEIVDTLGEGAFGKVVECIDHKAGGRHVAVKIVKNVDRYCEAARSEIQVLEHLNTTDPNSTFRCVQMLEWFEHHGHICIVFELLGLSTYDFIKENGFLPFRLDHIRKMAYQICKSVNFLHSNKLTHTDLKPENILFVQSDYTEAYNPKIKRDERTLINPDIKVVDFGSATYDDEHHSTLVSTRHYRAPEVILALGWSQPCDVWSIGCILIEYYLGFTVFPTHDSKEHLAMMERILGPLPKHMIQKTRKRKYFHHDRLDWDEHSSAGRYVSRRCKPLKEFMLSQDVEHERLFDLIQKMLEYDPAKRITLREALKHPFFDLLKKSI

[20] = A Cell Based Secondary Assay To Explore Cytotoxicity of Compounds that Sensitize Mycobacterium Tuberculosis to Beta-Lactam Antibiotics.; format: functional
[21] = molecular target: T3, Insulin-degrading enzyme (Homo sapiens, UniProt P14735); test: recombinant IDE activation, cell-free – biochemical, fluorescence polarization, counter-screen for IDE activator project, dose response (AID 588681)
T3 sequence (P14735 whole entry): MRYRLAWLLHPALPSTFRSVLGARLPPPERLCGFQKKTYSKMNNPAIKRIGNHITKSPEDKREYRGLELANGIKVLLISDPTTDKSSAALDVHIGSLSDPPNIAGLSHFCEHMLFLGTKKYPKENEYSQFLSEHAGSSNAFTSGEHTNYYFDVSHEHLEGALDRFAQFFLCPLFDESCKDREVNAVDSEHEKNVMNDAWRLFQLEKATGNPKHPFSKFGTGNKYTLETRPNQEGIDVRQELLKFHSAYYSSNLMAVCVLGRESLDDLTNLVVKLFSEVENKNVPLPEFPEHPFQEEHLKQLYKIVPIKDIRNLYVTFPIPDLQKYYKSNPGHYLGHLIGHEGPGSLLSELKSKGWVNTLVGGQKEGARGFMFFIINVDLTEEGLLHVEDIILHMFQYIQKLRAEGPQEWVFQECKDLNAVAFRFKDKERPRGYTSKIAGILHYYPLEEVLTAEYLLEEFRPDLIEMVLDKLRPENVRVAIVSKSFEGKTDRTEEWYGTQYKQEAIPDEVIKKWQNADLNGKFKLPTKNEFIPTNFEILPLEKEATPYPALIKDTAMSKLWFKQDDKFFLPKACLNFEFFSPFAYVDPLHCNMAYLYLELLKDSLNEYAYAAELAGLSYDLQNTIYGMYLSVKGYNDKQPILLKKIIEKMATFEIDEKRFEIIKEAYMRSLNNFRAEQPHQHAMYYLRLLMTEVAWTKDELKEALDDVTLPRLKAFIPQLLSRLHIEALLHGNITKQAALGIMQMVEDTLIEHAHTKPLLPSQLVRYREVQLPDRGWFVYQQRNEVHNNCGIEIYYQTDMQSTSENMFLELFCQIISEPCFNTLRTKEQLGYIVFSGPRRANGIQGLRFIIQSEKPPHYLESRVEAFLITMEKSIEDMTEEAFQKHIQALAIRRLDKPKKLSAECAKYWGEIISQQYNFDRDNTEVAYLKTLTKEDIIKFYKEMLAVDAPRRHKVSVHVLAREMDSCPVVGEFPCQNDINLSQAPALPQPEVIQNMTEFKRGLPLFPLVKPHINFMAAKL

[22] = molecular target: T3, Insulin-degrading enzyme; test: cellular IDE activation of Abeta substrate cleavage – fluorescence polarization, HEK cells, dose response (AID 588439); format: functional, cell-based
[23] = tested on: HEK293; test: membrane integrity loss in HEK cells – cell-based, fluorescence, cytotoxicity control for IDE activator project, dose response (AID 588440); format: functional; conditions: Homo sapiens;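 further: cytotoxicity by LDH release measuring loss of membrane integrity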
[24] = tested on: HEK293; test: optical interference in Abeta FP readout, dose response, artefact control for IDE activator project, biochemical, fluorescence polarization (AID 588442); format: functional, cell-based; conditions: Homo sapiens
[25] = molecular target: Melanocortin receptor 4 (Homo sapiens, UniProt P32245); format: functional, cell-based;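 further: Cell-based assay with luminescence read-out, confirmatory dose-response testing for agonist activity of biased ligands at MC4R; human U2OS cells with tagged receptor and beta-arrestin; potency of agonists that increase receptor coupling to beta-arrestin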
Melanocortin receptor 4, sequence (P32245 whole entry): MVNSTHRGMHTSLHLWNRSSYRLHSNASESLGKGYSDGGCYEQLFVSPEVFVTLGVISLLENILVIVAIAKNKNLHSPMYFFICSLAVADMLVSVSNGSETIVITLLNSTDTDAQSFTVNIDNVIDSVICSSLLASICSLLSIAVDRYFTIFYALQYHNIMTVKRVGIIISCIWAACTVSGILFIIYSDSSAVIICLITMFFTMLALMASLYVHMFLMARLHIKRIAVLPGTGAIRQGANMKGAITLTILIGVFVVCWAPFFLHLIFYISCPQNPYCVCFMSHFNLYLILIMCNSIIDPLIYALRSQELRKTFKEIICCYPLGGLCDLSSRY

[26] = molecular target: Cytochrome P450 2C19 (Homo sapiens, UniProt P33261); test: Cytochrome panel assay with activity outcomes. Panel member name: p450-cyp2c19 Compounds with AC50 equal or less than 10 uM are considered active; format: functional
Cytochrome P450 2C19, sequence (P33261 whole entry): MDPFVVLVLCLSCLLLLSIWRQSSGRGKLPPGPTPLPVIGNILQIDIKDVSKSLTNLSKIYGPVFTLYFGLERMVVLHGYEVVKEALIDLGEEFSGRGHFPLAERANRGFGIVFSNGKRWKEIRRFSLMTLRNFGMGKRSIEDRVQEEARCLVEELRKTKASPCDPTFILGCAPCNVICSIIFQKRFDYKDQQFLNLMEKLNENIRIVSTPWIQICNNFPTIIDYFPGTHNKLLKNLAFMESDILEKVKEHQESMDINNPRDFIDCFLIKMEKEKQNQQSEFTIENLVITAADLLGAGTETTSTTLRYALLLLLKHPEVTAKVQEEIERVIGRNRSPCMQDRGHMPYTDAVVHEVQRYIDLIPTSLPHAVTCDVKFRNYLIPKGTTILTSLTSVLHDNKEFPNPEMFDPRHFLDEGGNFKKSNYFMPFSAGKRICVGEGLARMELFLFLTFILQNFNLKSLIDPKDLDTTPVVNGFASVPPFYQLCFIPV

[27] = molecular target: Cytochrome P450 2D6 (Homo sapiens, UniProt P10635);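 further: CYP2D6 member of a cytochrome P450 panel assay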
Cytochrome P450 2D6, sequence (P10635 whole entry): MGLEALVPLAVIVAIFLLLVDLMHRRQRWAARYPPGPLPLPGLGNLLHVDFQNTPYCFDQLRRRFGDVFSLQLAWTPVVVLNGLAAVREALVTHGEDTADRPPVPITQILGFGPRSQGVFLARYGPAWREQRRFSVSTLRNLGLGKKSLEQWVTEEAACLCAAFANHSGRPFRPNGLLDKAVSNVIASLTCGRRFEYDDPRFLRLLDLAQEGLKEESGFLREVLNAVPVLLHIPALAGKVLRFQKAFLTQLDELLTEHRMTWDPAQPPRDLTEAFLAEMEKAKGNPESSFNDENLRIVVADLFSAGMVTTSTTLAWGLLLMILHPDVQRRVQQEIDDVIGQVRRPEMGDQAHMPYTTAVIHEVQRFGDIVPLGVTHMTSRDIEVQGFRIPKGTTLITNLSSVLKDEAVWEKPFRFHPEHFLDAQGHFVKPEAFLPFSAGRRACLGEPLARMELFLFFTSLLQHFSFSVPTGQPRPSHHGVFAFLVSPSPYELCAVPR

[28] = molecular target: T4, Cytochrome P450 3A4 (Homo sapiens, UniProt P08684);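 further: CYP3A4 tested as one member of a cytochrome P450 panel screen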
T4 sequence (P08684 whole entry): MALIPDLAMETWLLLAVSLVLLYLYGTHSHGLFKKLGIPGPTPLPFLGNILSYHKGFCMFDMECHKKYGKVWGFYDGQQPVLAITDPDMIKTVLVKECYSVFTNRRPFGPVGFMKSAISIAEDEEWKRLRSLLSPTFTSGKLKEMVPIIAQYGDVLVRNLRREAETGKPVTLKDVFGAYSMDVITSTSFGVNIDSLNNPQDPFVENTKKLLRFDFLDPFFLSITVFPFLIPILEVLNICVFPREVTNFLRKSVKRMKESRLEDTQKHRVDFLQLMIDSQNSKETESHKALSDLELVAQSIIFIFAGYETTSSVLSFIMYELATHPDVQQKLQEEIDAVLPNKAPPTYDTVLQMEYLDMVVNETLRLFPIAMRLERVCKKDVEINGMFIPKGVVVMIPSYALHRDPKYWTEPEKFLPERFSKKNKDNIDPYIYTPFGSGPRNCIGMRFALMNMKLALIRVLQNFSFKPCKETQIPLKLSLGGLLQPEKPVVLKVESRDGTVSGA

[29] = molecular target: Glyceraldehyde-3-phosphate dehydrogenase (Homo sapiens, UniProt P04406)
Glyceraldehyde-3-phosphate dehydrogenase, sequence (P04406 whole entry): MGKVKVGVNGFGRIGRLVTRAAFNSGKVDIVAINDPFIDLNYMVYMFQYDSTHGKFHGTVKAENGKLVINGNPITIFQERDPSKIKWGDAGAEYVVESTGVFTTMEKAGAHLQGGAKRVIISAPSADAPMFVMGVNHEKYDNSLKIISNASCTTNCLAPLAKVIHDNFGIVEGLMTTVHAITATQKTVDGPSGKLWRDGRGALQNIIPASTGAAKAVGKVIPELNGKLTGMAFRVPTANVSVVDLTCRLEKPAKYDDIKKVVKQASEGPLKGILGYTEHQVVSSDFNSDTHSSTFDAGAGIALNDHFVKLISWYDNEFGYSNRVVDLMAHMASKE

[30] = molecular target: Alkaline phosphatase, placental type (Homo sapiens, UniProt P05187); test: human placental alkaline phosphatase inhibition – biochemical, luminescence, confirmation (AID 1512); format: functional
Alkaline phosphatase, placental type, sequence (P05187 whole entry): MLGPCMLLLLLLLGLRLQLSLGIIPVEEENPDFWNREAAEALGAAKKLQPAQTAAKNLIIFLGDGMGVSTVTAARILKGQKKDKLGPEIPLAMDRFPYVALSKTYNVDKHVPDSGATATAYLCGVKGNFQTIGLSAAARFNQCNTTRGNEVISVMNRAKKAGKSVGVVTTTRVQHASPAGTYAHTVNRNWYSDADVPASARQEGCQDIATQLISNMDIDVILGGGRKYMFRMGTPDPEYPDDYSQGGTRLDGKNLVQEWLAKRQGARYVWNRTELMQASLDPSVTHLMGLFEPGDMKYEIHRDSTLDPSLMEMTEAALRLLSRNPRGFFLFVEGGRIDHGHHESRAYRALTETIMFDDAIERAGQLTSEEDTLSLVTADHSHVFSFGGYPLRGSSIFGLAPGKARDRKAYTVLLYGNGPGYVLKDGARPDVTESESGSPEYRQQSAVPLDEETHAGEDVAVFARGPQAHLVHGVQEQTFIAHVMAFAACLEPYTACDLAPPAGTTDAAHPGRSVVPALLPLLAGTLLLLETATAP

[31] = molecular target: T5, Alkaline phosphatase, tissue-nonspecific isozyme (Homo sapiens, UniProt P05186); test: potency against alkaline phosphatase TNAP – biochemical, luminescent, dose response, SAR follow-up (AID 1056)
T5 sequence (P05186 whole entry): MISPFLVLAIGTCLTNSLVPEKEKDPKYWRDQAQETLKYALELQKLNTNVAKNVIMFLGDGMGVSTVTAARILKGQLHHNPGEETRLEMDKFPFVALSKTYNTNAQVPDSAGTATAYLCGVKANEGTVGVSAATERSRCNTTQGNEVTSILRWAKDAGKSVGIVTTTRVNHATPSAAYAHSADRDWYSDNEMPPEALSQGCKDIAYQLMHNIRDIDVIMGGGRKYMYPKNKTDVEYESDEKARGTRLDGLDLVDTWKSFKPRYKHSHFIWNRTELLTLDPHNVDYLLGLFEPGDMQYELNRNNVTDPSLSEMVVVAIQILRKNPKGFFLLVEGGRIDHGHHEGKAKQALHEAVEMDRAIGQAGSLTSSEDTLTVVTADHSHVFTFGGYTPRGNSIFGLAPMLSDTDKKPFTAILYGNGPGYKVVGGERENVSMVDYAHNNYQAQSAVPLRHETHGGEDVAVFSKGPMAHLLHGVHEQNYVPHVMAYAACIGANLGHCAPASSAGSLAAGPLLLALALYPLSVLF

[32] = molecular target: T4, Cytochrome P450 3A4; remark: listed apart in the source
[33] = molecular target: Cytochrome P450 2C9 (Homo sapiens, UniProt P11712)
Cytochrome P450 2C9, sequence (P11712 whole entry): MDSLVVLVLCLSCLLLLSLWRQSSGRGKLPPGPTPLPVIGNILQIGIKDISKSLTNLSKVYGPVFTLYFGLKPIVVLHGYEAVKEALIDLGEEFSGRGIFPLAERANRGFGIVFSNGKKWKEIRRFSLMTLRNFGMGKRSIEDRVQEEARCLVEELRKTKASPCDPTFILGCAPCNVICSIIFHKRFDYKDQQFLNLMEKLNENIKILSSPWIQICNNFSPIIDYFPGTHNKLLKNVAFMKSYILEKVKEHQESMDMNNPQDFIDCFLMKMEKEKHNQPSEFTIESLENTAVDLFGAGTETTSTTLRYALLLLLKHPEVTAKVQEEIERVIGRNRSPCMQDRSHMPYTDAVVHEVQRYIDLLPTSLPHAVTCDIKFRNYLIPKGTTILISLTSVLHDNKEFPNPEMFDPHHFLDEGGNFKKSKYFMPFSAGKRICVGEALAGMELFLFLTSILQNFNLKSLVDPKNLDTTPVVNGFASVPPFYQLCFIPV

## CN(Cc1ccccc1)C1=CC(=[N+]2CCCCC2)CC(C)(C)C1
[1]
  EC50: < 0.1 µM (active)
[2]
  EC50: > 60 µM (not active)
[3]
  IC50: > 80 µM (inactive)
[4]
  AC50: 2.46 µM (active)
[5]
  AC50: 84.3 µM (active)
[6]
  EC50: 0.032 µM (active)

## COc1cc(/C=C2/SC(Nc3ccc(O)cc3)=NC2=O)ccc1O
[3]
  IC50: 42.7 µM (inactive)
[7]
  CC50: 61.1 µM (active)
[8]
  IC50: 20 µM (active)

## COc1ccc(/C=C(/C(=O)c2cccs2)N2C=CC=CC2=C(C#N)C#N)cc1
[9]
  EC50: > 120 µM (not active)
[10]
  EC50: > 120 µM (not active)
[11]
  EC50: > 120 µM (not active)
[12]
  Absolute IC50 (CHOP): 10 µM
[13]
  Absolute IC50 (XBP1): 10 µM
[14]
  CC50: > 25 µM (active)
[15]
  AC50: 8.18 µM (active)
[16]
  EC50: > 59.6 µM (inactive)
[17]
  EC50: > 59.6 µM (inactive)

## O=c1c2ccccc2oc2c1ccc1ccccc12
[18]
  AC50: 32.3 µM (active)

## COc1ccc(-c2nccc(NCc3ccc(C)cc3)n2)cc1
[19]
  AC50: 0.00697 µM (active)

## COc1ccc(C(=O)c2c[nH]c3ccccc23)cc1
[18]
  AC50: 41.9 µM (active)

## Cc1cc(C)c2sc(N(CCCN(C)C)C(=O)COc3ccc(Cl)cc3)nc2c1
[20]
  CC50: > 40 µM (active)
[21]
  EC50: > 54.7 µM (inactive)
[22]
  EC50: > 54.7 µM (inactive)
[23]
  IC50: 26.2 µM (inactive)
[24]
  EC50: > 55.9 µM (inactive)
[25]
  EC50: > 89.2 µM (inactive)

## COc1cccc(NC(=O)CSc2nc3c(c(-c4ccco4)c2C#N)CCCC3)c1
[26]
  AC50: inconclusive
[27]
  AC50: inconclusive
[28]
  AC50: inconclusive

## COc1ccc(Cc2nc(N)nn2-c2ccccc2)cc1
[29]
  IC50: > 100 µM (not active)
[30]
  IC50: > 100 µM (inactive)
[31]
  IC50: > 100 µM (inactive)

## Cc1cc(C)nc(SCC(=O)c2ccc3c(c2)OCO3)n1
[30]
  IC50: > 100 µM (inactive)
[31]
  IC50: > 100 µM (inactive)

## Cc1nc(NC(=O)c2ccccc2)sc1-c1csc(N)n1
[19]
  AC50: 1.35 µM (active)
[15]
  AC50: 1.26 µM (active)

## CCCCNC(=O)c1cc2nc3c(c(C(F)(F)F)n2n1)CCc1ccccc1-3
[26]; read-out: AC50
  AC50: 15.8 µM (inconclusive)
[32]
  AC50: 7.94 µM (inconclusive)
[33]
  AC50: 0.398 µM (inconclusive)
[27]
  AC50: inconclusive

## COc1ccccc1-c1ccc2c(c1)C(C)(Cc1ccc(F)c(Cl)c1)C(=O)N2 (stereo not drawn)
[16]
  EC50: > 59.6 µM (inactive)
[17]
  EC50: > 59.6 µM (inactive)

Reference: ChEMBL document CHEMBL1201862, “PubChem BioAssay data set” (2004)
